Experimental data published in patent US10329300B2, “Pyrazolo[3,4-d]pyrimidine compound or salt thereof” (TAIHO PHARMACEUTICAL CO., LTD., priority 2015, dated 2019).
Where two headings read alike, the source gives them in different places.

Columns and labels:
Format in all cases: cell-based
[1] = test system: HER2-overexpressing human stomach cancer cell line NCI-N87 cells; assay: Cytostatic activity against HER2-expressing cell line NCI-N87 (CellTiter-Glo)
Source text: HER2-overexpressing human stomach cancer cell line NCI-N87 cells were suspended in RPMI1640 medium (manufactured by Life Technologies Corp.) containing 10% fetal bovine serum. Meanwhile, EGFR-overexpressing highly activated human epithelioid cancer cell line A431 cells were suspended in DMEM, high glucose medium (manufactured by Life Technologies Corp.) containing 10% fetal bovine serum. Subsequently, each cell suspension was inoculated to each well of a 384-well flat-bottom microplate and cultured at 37° C. for 1 day in an incubator containing 5% carbon dioxide. […] The solution of the test compound in DMSO was diluted with the medium used in the suspension of each cell line, and this solution was added at a final concentration of DMSO of 0.2% to each well of the cell culture plate, followed by further culture at 37° C. for 3 days in an incubator containing 5% carbon dioxide.

[2] = test system: HER2-overexpressing human breast cancer cell line SK-BR-3 cells; assay: Cytostatic activity against HER2-expressing cell line SK-BR-3 (CellTiter-Glo); settings: 3-day culture, read-out: SK-BR-3 cell growth inhibitory activity IC50 value
Experimental: HER2-overexpressing human breast cancer cell line SK-BR-3 cells were suspended in McCoy's 5a medium (manufactured by Life Technologies Corp.) containing 10% fetal bovine serum. The cell suspension was inoculated to each well of a 384-well flat-bottom microplate and cultured at 37° C. for 1 day in an incubator containing 5% carbon dioxide. The compound of the present invention was dissolved in DMSO, and the test compound was diluted into 500 times as high concentration as the final concentration using DMSO. The solution of the test compound in DMSO was diluted with the medium used in the suspension of each cell line, and this solution was added at a final concentration of DMSO of 0.2% to each well of the cell culture plate, followed by further culture at 37° C. for 3 days in an incubator containing 5% carbon dioxide.

[3] = test system: EGFR-overexpressing highly activated human epithelioid cancer cell line A431 cells; assay: Cytostatic activity against EGFR-expressing cell line A431 (CellTiter-Glo); settings: 3-day culture, read-out: A431 cell growth inhibitory activity IC50 value
Source text: Test Example 2 Measurement Test (In Vitro) of Cytostatic Activity Against HER2-Expressing Cell Line (NCI-N87) and EGFR-Expressing Cell Line (A431) and Comparison of Selectivity Thereof
HER2-overexpressing human stomach cancer cell line NCI-N87 cells were suspended in RPMI1640 medium (manufactured by Life Technologies Corp.) containing 10% fetal bovine serum. Meanwhile, EGFR-overexpressing highly activated human epithelioid cancer cell line A431 cells were suspended in DMEM, high glucose medium (manufactured by Life Technologies Corp.) containing 10% fetal bovine serum. Subsequently, each cell suspension was inoculated to each well of a 384-well flat-bottom microplate and cultured at 37° C. for 1 day in an incubator containing 5% carbon dioxide. The compound of the present invention or Comparative Example compound 1 was dissolved in DMSO, and the test compound was diluted into a concentration of 500 times the final concentration using DMSO. The solution of the test compound in DMSO was diluted with the medium used in the suspension of each cell line, and this solution was added at a final concentration of DMSO of 0.2% to each well of the cell culture plate, followed by further culture at 37° C. for 3 days in an incubator containing 5% carbon dioxide.
Rate of growth inhibition (%)=(C−T)/(C)×100 T: Luminescence intensity of a well supplemented with the test compound C: Luminescence intensity of a well not supplemented with the test compound

[4] = Homo sapiens, 72 h, 3-day culture, NCI-N87, read-out: NCI-N87 cell growth inhibitory activity IC50 value

**Q.** Which “cytostatic effect in evaluation using HER2-overexpressing cell lines” value ([1]; HER2-overexpressing cell lines, qualitative) does the source give for C=CC(=O)N1CCC[C@@H](n2nc(C(=O)Nc3nc4cc(F)ccc4o3)c3c(N)ncnc32)C1 [Comparative Example compound 1, (R)-1-(1-acryloylpiperidin-3-yl)-4-amino-N-(5-fluorobenzo[d]oxazol-2-yl)-1H-pyrazolo[3,4-d]pyrimidine-3-carboxamide, reference compound] here?
**A.** The value was “very low cytostatic effect”.

**Q.** What about the IC50 [1, 4] of the same compound?
**A.** The IC50 was 2380 nM.

**Q.** And the IC50 ([2]; Homo sapiens, 72 h)?
**A.** The IC50 was 1.13 µM.

**Q.** Which IC50 ([3]; Homo sapiens, A-431, 72 h) does the source give for C=CC(=O)N1CCC[C@@H](n2nc(C(=O)Nc3ccc(CC(=O)N(C)C)c(Cl)c3)c3c(N)ncnc32)C1 [Example 8, (R)-1-(1-acryloylpiperidin-3-yl)-4-amino-N-(3-chloro-4-(2-(dimethylamino)-2-oxoethyl)phenyl)-1H-pyrazolo[3,4-d]pyrimidine-3-carboxamide] here?
**A.** Its IC50 is 0.956 µM.

**Q.** For C=CC(=O)N1CCC[C@@H](n2nc(C(=O)Nc3ccc(OC(=O)N(C)C)cc3OC)c3c(N)ncnc32)C1 [Example 36, (R)-4-(1-(1-acryloylpiperidin-3-yl)-4-amino-1H-pyrazolo[3,4-d]pyrimidine-3-carboxamido)-3-methoxyphenyl dimethylcarbamate], which IC50 ([1]; Homo sapiens, NCI-N87, 72 h, read-out: NCI-N87 cell growth inhibitory activity IC50 value (nM)) is on record?
**A.** Its IC50 is 8 nM.

**Q.** What about the IC50 ([3]; Homo sapiens, A-431, 72 h) of the same compound?
**A.** Its IC50 is 2.61 µM.

**Q.** C=CC(=O)N1CCC[C@@H](n2nc(C(=O)Nc3cc(C)c(CC(=O)N(C)C)cc3C)c3c(N)ncnc32)C1 [Example 39, (R)-1-(1-acryloylpiperidin-3-yl)-4-amino-N-(4-(2-(dimethylamino)-2-oxoethyl)-2,5-dimethylphenyl)-1H-pyrazolo[3,4-d]pyrimidine-3-carboxamide] was tested. Which IC50 [1, 4] did it give?
**A.** The IC50 was 12 nM.

**Q.** And the IC50 ([2]; Homo sapiens, 72 h)?
**A.** The IC50 was 0.024 µM.

**Q.** And the IC50 ([3]; Homo sapiens, A-431, 72 h)?
**A.** Its IC50 is 1.8 µM.

**Q.** With C=CC(=O)N1CCC[C@@H](n2nc(C(=O)Nc3ccc(CC(=O)N(C)C)c4c3OCO4)c3c(N)ncnc32)C1 [Example 53, (R)-1-(1-acryloylpiperidin-3-yl)-4-amino-N-(7-(2-(dimethylamino)-2-oxoethyl)benzo[d][1,3]dioxol-4-yl)-1H-pyrazolo[3,4-d]pyrimidine-3-carboxamide] as the compound, how does the IC50 [1, 4] read?
**A.** The IC50 was 11 nM.

**Q.** And the IC50 ([3]; Homo sapiens, A-431, 72 h)?
**A.** Its IC50 is 1.67 µM.

**Q.** For C=CC(=O)N1CC[C@@H](n2nc(C(=O)Nc3ccc(CC(=O)N(C)C)c(F)c3C)c3c(N)ncnc32)C1 [Example 56, (R)-1-(1-acryloylpyrrolidin-3-yl)-4-amino-N-(4-(2-(dimethylamino)-2-oxoethyl)-3-fluoro-2-methylphenyl)-1H-pyrazolo[3,4-d]pyrimidine-3-carboxamide], which IC50 ([3]; Homo sapiens, A-431, 72 h) is on record?
**A.** The IC50 was 2.51 µM.

**Q.** “(R)-1-(1-acryloylpiperidin-3-yl)-4-amino-N-(4-(2-methoxy(methyl)amino-2-oxoethyl)-2-methylphenyl)-1H-pyrazolo[3,4-d]pyrimidine-3-carboxamide [Example 72]” was tested. Which IC50 ([1]; 3-day culture, NCI-N87, read-out: NCI-N87 cell growth inhibitory activity IC50 value) did it give?
**A.** Its IC50 is 5 nM.

**Q.** What about the IC50 [2] of the same compound?
**A.** Its IC50 is 0.016 µM.

**Q.** And the IC50 [3]?
**A.** Its IC50 is 1.17 µM.

**Q.** With “(R,E)-4-(4-amino-1-(1-(4-dimethylamino)but-2-enoyl)piperidin-3-yl)-1H-pyrazolo[3,4-d]pyrimidine-3-carboxamido)naphthalen-1-yl dimethyl carbamate [Example 66]” as the compound, how does the IC50 [3] read?
**A.** The IC50 was 6.04 µM.
